Assay results reported in patent publication US20120270770A1, “Anti-angiogenic peptides and their uses” (priority 2010, published 2012).
“Also recorded” adds a separate entry of the source. Where a SMILES comes first, the peptide text is derived from it.

Tests used:
[1] = Fate of radiolabeled (3H/14C) peptide after injection into the animal; format: in vivo; conditions: no matter the route of administration
Text: Lytic peptides are active in eliminating tumor-derived cells by causing direct osmotic lysis. […] Indeed, that is the case. […] However, in some cases there was little activity. To determine what might be happening in vivo, radiolabeled D2A21 was chemically synthesized with all alanines labeled with either ^3H or ^14C. Since the labeling pattern was asymmetric, it enabled us to follow the physical state of the peptide once it had been injected into the animal by comparing the unique ratios of ^3H/^14C that would result if the peptide experienced proteolysis. […] The possibility emerged that the systemic in vivo anti-cancer activity was retained within specific fragments of D2A21.

[2] = tested on: Stage IV pancreatic cancer; conditions: cited from earlier work
[3] = tested on: angiogenesis in Matrigel deposits imbibed with fibroblast growth factor 1 (FGF1); assay: Matrigel deposit angiogenesis assay (FGF1-loaded Matrigel implanted in mice, histology score); format: in vivo; parameters: key to top level score reached in Matrigel deposits: ++++: This system ranks each sample using a 0 to 4 plus (+) scale; B in FIG. 13 would yield a score of +++; no + sign would yield a value of 0, as in A in FIG. 13; conditions: for angiogenic activity score, Sample 1 / angiogenic activity score, Sample 2 / angiogenic activity score, Sample 3 / angiogenic activity score, Sample 4 / angiogenic activity score, Sample 5 / angiogenic activity score, Sample 6 / angiogenic activity score, Sample 7 / angiogenic activity score, Sample 8 / top level score reached in Matrigel deposits: 0 to 4 plus scale; for angiogenic activity score, Sample 1 / angiogenic activity score, Sample 2 / angiogenic activity score, Sample 3 / angiogenic activity score, Sample 4 / angiogenic activity score, Sample 5 / angiogenic activity score, Sample 6 / angiogenic activity score, Sample 7 / angiogenic activity score, Sample 8 / angiogenic / anti-angiogenic activity in Matrigel deposit (in words): 20 μg peptide IP daily; for angiogenic activity score, Sample 1 / angiogenic activity score, Sample 2 / angiogenic activity score, Sample 3 / angiogenic activity score, Sample 4 / angiogenic activity score, Sample 5 / angiogenic activity score, Sample 6 / angiogenic activity score, Sample 7 / angiogenic activity score, Sample 8: Day 14 histology; for % Diff.: difference of mean score from control (2.50); for angiogenic / anti-angiogenic activity in Matrigel deposit (in words): histology, Day 14; for angiogenic activity score, Mean: mean of samples, control mean 2.50
Text: Matrigel deposits were surgically implanted on both sides of 4 mice per treatment yielding a possible 8 samples per treatment. Matrigel is a polymeric substance that appears to be relatively inert in animals and it can serve as a matrix that allows experimentation in vivo on many different difficult-to-study-processes. Prior to implantation, the Matrigel was allowed to imbibe fibroblast growth factor 1 (FGF1). This protein is a powerful inducer of angiogenesis and its presence guarantees that sufficient activity will be observed within the allotted time period of the experiment. Therefore, any inhibition of angiogenesis is likely to be a real phenomenon as the experiment has been set to heavily favor the angiogenic process. Angiogenesis occurs by day 14 and beginning Day 1 (Day 0=day of implantation), mice were injected IP daily with 20 μg of peptide in 100 μl of normal saline. The animals were sacrificed on Day 14, and each Matrigel deposit divided longitudinally and fixed in 10% buffered formalin. One of the halves of each Matrigel deposit was then sectioned. Read-out for this experiment was via histology, with semi-quantitative/qualitative counting of migration of cells and their subsequent assembly of lumenal structures within the Matrigel. This method allows us to observe the full physiologic spectrum of effects, and was useful in delineating trends. […] In FIG. 13, A represents what a section of a Matrigel gel deposit looks like under the microscope soon after surgical implantation. The sample in B is derived from the control at the conclusion of the experiment. Intense activity is present with numerous cells attaching to the surface of the Matrigel. Cells begin to penetrate the deposit and organize into discrete structures that coalesce to form the beginning of tubes twisting and branching in many directions. These venules eventually connect with the system carrying blood and it is possible to see red cells and lymphocytes within them. This process is called “arborization”, derived from the fact that the angiogenic process most closely resembles the growth of roots and branches of trees. All but two of the peptide treatments looked, more or less, like B (all the peptides of Table 1 were tested). In C, a typical sample from the peptide C-1 treatment is shown. […] Consequently, there were far fewer cells and cellular structures inside of the Matrigel. […] There were large regions of Matrigel that had no visibly associated structures and few single cells, including on the periphery, while other regions had some limited activity.
This system ranks each sample using a 0 to 4 plus (+) scale. Thus, B in FIG. 13 would yield a score of +++ while no + sign would yield a value of 0, as in A in FIG. 13. In Table 3 the data is modified to a numerical form and plotted averages are shown.

[4] = tested on: HMEC-1 monolayer; assay: Endothelial cell migration assay (scraped HMEC-1 monolayer); format: cell-based; conditions: NT = 1.00
Method: The results in Table 6 are gathered from an in vitro experiment and show the ability of JC 15 10N to inhibit the migration of endothelial cells (the “minus” values). This migration is a requisite step in the formation of new blood vessels. […] The shading indicates the presence of VEGF ([…] endothelial growth factor). This growth factor causes endothelial cell migration and consequent assembly of blood vessels.
Cell migration was performed as previously described. In brief, a HMEC-1 monolayer was scraped making a 1-mm wide denuded area then stimulated with VEGF and 10N and the area unoccupied by the migrating cells was determined using MetaMorph and expressed as a percentage of control.

Molecule | time to hydrolysis of labeled peptide to fragments of various lengths [1] | longest survival on treatment ([2]; patients with Stage IV pancreatic cancer on gemcitabine treatment) | Median survival time ([2]; patients with Stage IV pancreatic cancer treated with gemcitabine (untreated 4.5 months)) | angiogenic activity score, Sample 1 [3] | angiogenic activity score, Sample 2 [3] | angiogenic activity score, Sample 3 [3] | angiogenic activity score, Sample 4 [3] | angiogenic activity score, Sample 5 [3] | angiogenic activity score, Sample 6 [3] | angiogenic activity score, Sample 7 [3] | angiogenic activity score, Sample 8 [3] | % Diff. [3] | angiogenic / anti-angiogenic activity in Matrigel deposit (in words) [3] | angiogenic activity score, Mean [3] | top level score reached in Matrigel deposits [3] | Endothelial Cell Migration ([4]; VEGF 75 ng/ml, second series) | Endothelial Cell Migration ([4]; VEGF 150 ng/ml, first series) | Endothelial Cell Migration ([4]; VEGF 150 ng/ml, third series)
C[C@H](NC(=O)[C@H](Cc1ccccc1)NC(=O)[C@H](C)NC(=O)[C@H](Cc1ccccc1)NC(=O)[C@H](CCCCN)NC(=O)[C@H](C)NC(=O)[C@H](Cc1ccccc1)NC(=O)[C@H](CCCCN)NC(=O)[C@H](CCCCN)NC(=O)[C@H](C)NC(=O)[C@H](Cc1ccccc1)NC(=O)[C@H](CCCCN)NC(=O)[C@H](CCCCN)NC(=O)[C@H](Cc1ccccc1)NC(=O)[C@H](CCCCN)NC(=O)[C@H](CCCCN)NC(=O)[C@H](C)NC(=O)[C@H](Cc1ccccc1)NC(=O)[C@H](CCCCN)NC(=O)[C@H](CCCCN)NC(=O)[C@H](C)NC(=O)[C@@H](N)Cc1ccccc1)C(=O)N[C@@H](Cc1ccccc1)C(=O)O [JC15] (H-FAKKFAKKFKKFAKKFAKFAFAF-OH; N-terminus and C-terminus assumed) | within minutes | – | – | – | – | – | – | – | – | – | – | – | – | – | – | – | – | –
Nc1ccn([C@@H]2O[C@H](CO)[C@@H](O)C2(F)F)c(=O)n1 [gemcitabine] | – | 19 months | 4.8 months | – | – | – | – | – | – | – | – | – | – | – | – | – | – | –
FAKKFAKFAF [JC15-10C] | – | – | – | 2 | 3 | 2 | 3 | 2 | 3 | 2 | 3 | 0.00% | inactive | 2.50 | – | – | – | –
FAKKFAKKFKKF [JC15-12N] | – | – | – | 4 | 2 | 3 | 2 | 3 | 2 | 3 | – | 8.57% | levels of activity higher than the control; also recorded: cannot exert an anti-angiogenic effect | 2.71 | ++++ | – | – | –
FAKKFAKKFKKFAKKFAK [JC15-18N] | – | – | – | 3 | 2 | 3 | 3 | – | – | – | – | 10.00% | levels of activity higher than the control; also recorded: cannot exert an anti-angiogenic effect | 2.75 | – | – | – | –
IVRRADRAAVPIVNLKDELL [C-1] | – | – | – | 2 | 2 | 3 | 1 | 2 | 1 | – | – | −26.67% | far fewer cellular associations; also recorded: possess anti-angiogenic activity | 1.83 | – | – | – | –
KKFKKFAKKFAKFAF [JC15-15C] | – | – | – | 2 | 3 | 2 | 3 | 2 | 3 | 3 | 4 | 10.00% | levels of activity higher than the control; also recorded: cannot exert an anti-angiogenic effect | 2.75 | ++++ | – | – | –
LDLQAPLYKKIIKKLLES [PF-2] | – | – | – | 2 | 3 | 2 | 3 | – | – | – | – | 0.00% | – | 2.50 | – | – | – | –
MFGNGKGYRGKRATTVTGTP [PL-2] | – | – | – | 2 | 3 | 2 | 3 | 2 | 3 | 2 | – | −2.86% | – | 2.43 | – | – | – | –
PTAQLIATLKNGRKI [PF-1] | – | – | – | 2 | 3 | 2 | 3 | – | – | – | – | 0.00% | – | 2.50 | – | – | – | –
QAWDSQSPHAHGYIPSKFPNKNLKKNY [PL-1] | – | – | – | 2 | 3 | 2 | 3 | 2 | 3 | 2 | 3 | 0.00% | – | 2.50 | – | – | – | –
vascular endothelial growth factor [VEGF, reference compound] | – | – | – | – | – | – | – | – | – | – | – | – | – | – | – | 0.69 | 0.78 | 0.77
